Experimental data from patent US20230242669A1, “ANTIBODY THAT BINDS ERBB-2 AND ERBB-3” (Merus N.V., priority 2014, published 2023).

Assays:
[1] = system: HER2:HER3 signaling in JIMT-1 tumors; test: VeraTag analysis of JIMT-1 tumors; type: in vivo, mice
Procedure: Next, samples were paraffin-embedded. Sections of 7 um in thickness were sliced with a microtome (LEICA) and placed on positively charged glass slides (VWR) with serial number labeled. Slides were air-dried for 30 min and then baked in a heated oven set at 60° C. Next samples were processed for different VeraTag analysis. Total HER2 analysis (HT2) according to U.S. Pat. Appl. No. 12/340,436, total HER3 analysis (H3T) according to U.S. Pat. No. 8,349,574; U.S. Pat. Appl. No. 2013/0071859 and finally HER2-HER3 heterodimer (H23D), HER3pY1289 (H3pY1289) and HER3-PI3 kinase (H3PI3K) according to Int′l Patent Appl. No. PCT/US2014/033208.

[2] = system: HRG mediated phosphorylation in N87 and SKBR-3 cells; test: PathScan RTK / intracellular signaling antibody arrays; type: cell-based, human; settings: 5 nM antibody, 100 ng/ml HRG
Procedure: Cells of an exponentially grown culture were harvested and seeded in 6 well plates (3.75 ×10^6 cells for N87 and 1.5×10^6 cells for SKBR-3) in starvation medium (N87 cells: RPMI-1640, 0.05% BSA, 10 µg/ml Holo-transferrin; SKBR-3 cells: DMEM/F-12, 2 mM L-glutamine, 0.05% BSA, 10 µg/ml Holo-transferrin) and incubated incubated overnight at 37° C., 5% CO2, in 95% relative humidity. The next day, antibodies were added to a final concentration of 5 nM and cells were incubated for one hour at 37° C., 5% CO2, in 95% relative humidity. HRG was then added to a final concentration of 100 ng/ml. After 1, 3, 6 or 24 hours at 37° C., 5% CO2, in 95% relative humidity, plates were placed on ice, cells were washed twice with cold PBS. Subsequently 0.3 ml ice-cold lysis buffer was added (Cell signaling RTK # 9803 or IC # 7018) and cells were lysed for a minimum of 30 minutes on ice. Next, protein concentrations were measured using BCA (Pierce #23235). Protein concentrations were adjusted to 2 mg/ml with lysis buffer. Next, lysates were applied to PathScan RTK Signaling Antibody Arrays (Cell signaling #7949) or PathScan Intracellular Signaling Antibody Arrays. All incubations were performed with sealed wells on an orbital shaker at room temperature. Lysates (75 µl) were diluted 2 times to […] concentration with 75 µl Array Diluent Buffer supplemented with protease inhibitor cocktail and kept on ice. Array wells were blocked with 100 µl Array block buffer for 15 minutes. Block buffer was removed and Lysates were applied to the wells and allowed to incubate for 2 hours. Lysate was aspirated and wells were washed 4 times with 100 µl Wash buffer. Next, 100 µl detection antibody cocktail was added per well and incubated for 1 hour. Antibody cocktail was aspirated and wells were washed 4 times with 100 µl Wash buffer. 75 µl DYLIGHT80™ Streptavidin was added to each well. DYLIGHT80™ Streptavidin was aspirated and wells were washed 4 times with 100 µl Wash buffer. […] Spot fluorescence intensity was calculated using Image Studio software.

AKT in JIMT-1 tumors = test: Phosphoprotein analysis of JIMT-1 tumors by Luminex; type: in vivo, mice
Procedure: Tumors were flash-frozen and processed to powder. Tumor lysates were prepared to a concentration of 50 mg tumor/mL using cold BioRad Lysis Buffer (supplemented with 0.4% BioRad Factor 1, 0.2% BioRad Factor 2, and 2 mM PMSF) to the frozen powder samples, incubated at 4° C. on a rocker for 60 minutes to ensure complete lysis. The samples were centrifuged at 4° C. for 10 minutes at 16000 × g, and aliquoted. Total protein was determined using the Biorad DC Protein Assay reagents according to manufacturer’s instructions. Luminex Assay: The JIMT-1 tumor lysate samples were processed and analyzed for: Total AKT AKT(Ser473) and AKT(Thr308using commercially available Luminex kits from Millipore (Cat # 48-618MAG (Lot No. 2532050), 46-645MAG (Lot No. 46645 M-1K). Each sample was tested in duplicate. Dilutions were prepared in sample diluent to load a target of approximately 25 µg protein per well for all total and phosphorylated analyte determinations. The Millipore kits were used according to the manufacturer’s specifications.

JIMT-1 tumor = test: JIMT-1 xenograft study; type: in vivo, CB.17 SCID mice; settings: 2.5 and 25 mg/kg ip qwk × 4
Procedure: JIMT-1 human breast carcinoma cells were grown in DMEM containing 10% fetal bovine serum, 100 units/mL penicillin G sodium, 100 µg/mL streptomycin sulfate, 25 µg/mL gentamicin, and 2 mM glutamine until the time of implantation. At the day of implantation JIMT-1 breast cells were harvested during log phase growth and resuspended in cold PBS. […] Each mouse was injected subcutaneously in the right flank with 5 ×10^6 tumor cells (0.2 mL cell suspension). The tumors were measured with a caliper in two dimensions to monitor size as the mean volume twice per week. Once tumors had reached approximately 100-150 mm^3 in size animals were enrolled in the efficacy study. Outlier animals -tumor volume - were removed and the mice were randomly distributed into groups of 10 mice each. Mice were injected once weekly (antibody) or daily (lapatinib) for a period of four weeks. Details of the treatment groups are depicted in Table 11.
Tumor sizes were measured weekly by caliper measurement.

With “PB4188: bispecific HER2xHER3 IgG: HER2 arm MF3958, HER3 arm MF3178” the “Total HER2, HER3 or phosphorylated HER3 in tumors versus controls” value ([1]; 25 mg/kg) was “no difference”, the “HER2:HER3 dimers in tumors versus untreated controls” value ([1]; 25 mg/kg, both dosing regimens) was “significant PB4188 mediated reduction in HER2:HER3 dimers” and the “HER3-p85 (PI3K) in tumors versus untreated controls” value ([1]; 4H after dosing) was “significant reduction in HER3-p85 (PI3K)”. The “ERK and S6 phosphorylation” value [2] was “strong inhibition”, the HER2 phosphorylation [2] was “does not inhibit phosphorylation of HER2” and the AKT phosphorylation ([2]; first 6H) was “completely blocks AKT phosphorylation”. The “Akt expression in tumors compared to untreated tumors” value (AKT in JIMT-1 tumors; JIMT-1 tumors) was “increase in Akt expression”, the “Phosphorylation of AKT in tumors” value (AKT in JIMT-1 tumors; after two-weekly and four-weekly dose) was “completely inhibited” and the “Efficacy on tumor size” value (JIMT-1 tumor) was “more potent than lapatinib or the combination pertuzumab and trastuzumab”.
